Test results taken from US20230181597A1, “METAL COMPLEXES OF NOCARDAMINE AND THEIR USE IN PHARMACEUTICAL COMPOSITIONS” (priority 2014, published 2023).

Columns and labels:
[1] = cited from earlier work
[2] = test system: croton oil-induced irritant contact dermatitis (ICD) in mice ears; assay: Croton oil-induced irritant contact dermatitis (ICD) model, ear swelling; type: in vivo, Balb/c female mice
[3] = test system: Bombyx mori (silkworm) ovary-derived cultured cell line cells; conditions: reported in the literature; cited from earlier work
[4] = test system: S. aureus; assay: Bactericidal activity (bacterial viability) on Petri dishes; type: cell-based, Staphylococcus aureus; conditions: 5 mg/ml (FIG. 9C)
Experimental: (§1) The concentrations of zinc-nocardamine, in four quadrants (1-4) of a Petri dish, were set as follows: 1-0 mg/ml; 2-5 mg/ml; 3-1.7 mg/ml; 4-0.5 mg/ml.
(§2) The anti-bacterial effect of zinc-nocardamine was assessed on the following types of pathogenic bacteria: E. coli (Gram-negative), P. aeruginosa (Gram-negative) and S. aureus (Gram-positive) (isolated in Hadassah-Ein Karem Hospital). More specifically, the experiment was performed as following: Each bacterial strain was grown overnight at 37° C., under aeration of 200 rpm, in the appropriate medium (EPEC (E. coli)) and P. aeruginosa in LB broth, S. aureus in BHI broth. Both media were purchased from BD (NJ, USA). Series of three-fold consecutive dilutions were performed in a 96-well plate, and bacteria were then added to the wells at a final OD600 of 0.01. The experiments with all three strains were performed in duplicate. Zinc-nocardamine 10 mg/ml aqueous solution was prepared in advance; prior to the experiment it was diluted in the appropriate media in a ratio of 1:2, to obtain a stock concentration of 5 mg/ml. This stock was further diluted to 1.7, 0.5, 0.18, 0.06, 0.02, 0.002, 0.0007, and 0.0002 mg/ml and added to appropriate wells. Then the plate was incubated in a plate reader for 24 h, and the kinetics of OD measurements were recorded every 20 minutes by Eon plate reader (BioTek, VE, USA). […]

[5] = test system: P. aeruginosa; assay: as above; type: cell-based, Pseudomonas aeruginosa; conditions: 5 mg/ml (FIG. 9B)
Experimental: as §1, §2

[6] = test system: IL-17; assay: IL-17 level in ear tissue of ICD mice (ELISA); type: in vivo, Balb/c female mice; conditions: t=6 h after croton oil, 0.5% ointment (FIG. 6D)
Experimental: (§3) The samples were homogenized, and protein concentration was measured by Bradford procedure. The concentration of cytokines was determined by ELISA method, using commercially available kits according to the Manufacturer's protocols (RayBiotech, GA, USA).
(§4) In order to study the underlying mechanism of the zinc-nocardamine complex, its assumed anti-inflammatory activity was tested by measuring the concentrations of various pro-inflammatory cytokines, in the ears, along the experimental protocol, specifically, IL-1α, IL-6, IL-17 and TNF-α. The concentration of these cytokines were measured in ear tissue that had been exposed to croton oil (at t=0) and was left untreated to t=6 h. The concentration was compared to the concentrations at t=6 h, in ears which were exposed at t=0, and treated with the complex at t=3 h.
(§5) The effect of ICD-induced inflammatory process on the concentration of IL-1α, IL-6, TNF-α and IL-17 within the ear tissue is shown in FIG. 6A-6D. […] The concentration of the cytokines was determined by ELISA method, using commercially available kits, according to the Manufacturer protocol (RayBiotech, GA, USA)

[7] = test system: TNF-α; assay: TNF-α level in ear tissue of ICD mice (ELISA); type: in vivo, Balb/c female mice; conditions: t=6 h after croton oil, 0.5% ointment (FIG. 6C)
Experimental: as §3, §4, §5

[8] = test system: P. aeruginosa; assay: Bacterial growth curves (OD, 96-well plate, 24 h); type: cell-based, Pseudomonas aeruginosa; conditions: 1.7 mg/ml (FIG. 8B)
Experimental: as §2, with “Zinc-nocardamine 10 mg/ml aqueous solution was prepared in advance; prior to the experiment it was diluted in the appropriate media in a ratio of 1:2, to obtain a stock concentration of 5 mg/ml. This stock was further diluted to 1.7, 0.5, 0.18, 0.06, 0.02, 0.002, 0.0007, and 0.0002 mg/ml and added to appropriate wells.” left out
(§6) The anti-bacterial effect of zinc-nocardamine was assessed on the following types of pathogenic bacteria: E. coli (Gram-negative), P. aeruginosa (Gram-negative) and S. aureus (Gram-positive) (isolated in Hadassah-Ein Karem Hospital). […] The plate was then incubated in a plate reader for 24 h, and the kinetics of OD measurements were recorded, every 20 minutes. […]

[9] = test system: IL-1α; assay: IL-1α level in ear tissue of ICD mice (ELISA); type: in vivo, Balb/c female mice; conditions: t=6 h after croton oil, 0.5% ointment (FIG. 6A)
Experimental: as §3, §4, §5

[10] = test system: IL-6; assay: IL-6 level in ear tissue of ICD mice (ELISA); type: in vivo, Balb/c female mice; conditions: t=6 h after croton oil, 0.5% ointment (FIG. 6B)
Experimental: as §3, §4, §5

[11] = test system: E. coli; assay: Bactericidal activity (bacterial viability) on Petri dishes; type: cell-based, Escherichia coli; conditions: 5 mg/ml (FIG. 9A)
Experimental: as §1, §2

[12] = test system: IL-13; assay: IL-13 level in ear tissue of ICD mice (ELISA); type: in vivo, Balb/c female mice; conditions: 0.5% ointment at t=3 h, measured at t=6 h (FIG. 7)
Experimental: as §3
The assumed anti-inflammatory activity of the zinc-nocardamine complex was tested by measuring the concentrations of various anti-inflammatory cytokines, specifically, IL-4, IL-10 and IL-13, in ear tissue of mice. The concentrations of these cytokines were measured and their pattern of change along the experiment was compared for each: at baseline t=0 (no exposure), at t=3 h after exposure to croton oil, at t=6 h after exposure to croton oil, and at 6 h after exposure to croton oil where these ears had been treated with the zinc-nocardamine complex at t=3 h after the exposure to the croton oil. […] The concentration of the cytokines was determined by ELISA method, using commercially available ELISA kits, according to the Manufacturer protocol (RayBiotech, GA, USA; Diaclone, Besançon, France).

[13] = test system: E. coli (EPEC); assay: Bacterial growth curves (OD, 96-well plate, 24 h); type: cell-based, Escherichia coli; conditions: 1.7 mg/ml (FIG. 8A)
Experimental: as §2, with “Zinc-nocardamine 10 mg/ml aqueous solution was prepared in advance; prior to the experiment it was diluted in the appropriate media in a ratio of 1:2, to obtain a stock concentration of 5 mg/ml. This stock was further diluted to 1.7, 0.5, 0.18, 0.06, 0.02, 0.002, 0.0007, and 0.0002 mg/ml and added to appropriate wells.” left out
as §6

[14] = test system: S. aureus; assay: Bacterial growth curves (OD, 96-well plate, 24 h); type: cell-based, Staphylococcus aureus
Experimental: as §2, with “Zinc-nocardamine 10 mg/ml aqueous solution was prepared in advance; prior to the experiment it was diluted in the appropriate media in a ratio of 1:2, to obtain a stock concentration of 5 mg/ml. This stock was further diluted to 1.7, 0.5, 0.18, 0.06, 0.02, 0.002, 0.0007, and 0.0002 mg/ml and added to appropriate wells.” left out
as §6

CC(=O)N(O)CCCCCNC(=O)CCC(=O)N(O)CCCCCNC(=O)CCC(=O)N(O)CCCCCN [desferrioxamine B]
water solubility [1]: about 50 mg/ml

O=C1CCC(=O)N(O)CCCCCNC(=O)CCC(=O)N(O)CCCCCNC(=O)CCC(=O)N(O)CCCCCN1 [nocardamine]
water solubility (description) [1]: soluble in water with heating
recovery from ICD versus untreated and zinc-nocardamine groups ([2]; 0.5% w/w ointment applied 3 h after croton oil (FIG. 2B)): recovered better than the untreated ones, their recovery was much slower than the recovery observed in mice that received zinc-nocardamine complex
change of cell morphology [3]: change the morphology of insect Bombyx mori (silkworm) ovary-derived cultured cell line cells into spindle-like configuration

zinc-nocardamine complex
bactericidal activity on S. aureus [4]: bactericidal activity was obtained
bactericidal activity on P. aeruginosa [5]: bactericidal activity was obtained
concentration of IL-17 in ear tissue [6]: reduced the concentration of the cytokines to nearly the basal level
concentration of TNF-α in ear tissue [7]: reduced the concentration of the cytokines to nearly the basal level
growth inhibition of P. aeruginosa [8]: mild inhibition
concentration of IL-1α in ear tissue [9]: reduced the concentration of the cytokines to nearly the basal level
concentration of IL-6 in ear tissue [10]: reduced the concentration of the cytokines to nearly the basal level
bactericidal activity on E. coli [11]: bactericidal activity was obtained
IL-13 level in ear tissue [12]: restoring the IL-13 level back to its baseline level
optimal concentration in Vaseline-based ointment ([2]; dose-response 0.1, 0.2, 0.5%, applied 3 h after irritant (FIG. 3)): 0.5%
growth inhibition of E. coli [13]: growth inhibition was observed
growth inhibition of S. aureus ([14]; 0.5 mg/ml (FIG. 8C)): growth inhibition was observed
growth inhibition of S. aureus ([14]; 1.7 mg/ml (FIG. 8C)): growth inhibition was observed
